This test addresses T1, Bma-GAR-3 (Brugia malayi, UniProt A0A4E9FL79).
T1 construct: full-length synthesized ORF; transgenic C. elegans gar-3(gk305) knockout, expressed in ASH neuron (sra-6p), body wall muscle (myo-3p) or pharynx (myo-2p)
Description: ring aversion assay, transgenic C. elegans expressing receptor in ASH neuron. The note with it: agonist; 100 mM in plate ring; whole transgenic worms, gar-3(gk305) knockout background; N2 and knockout as controls; also pharyngeal pumping and dye-uptake assays.

T1 sequence (A0A4E9FL79 entry or part of it): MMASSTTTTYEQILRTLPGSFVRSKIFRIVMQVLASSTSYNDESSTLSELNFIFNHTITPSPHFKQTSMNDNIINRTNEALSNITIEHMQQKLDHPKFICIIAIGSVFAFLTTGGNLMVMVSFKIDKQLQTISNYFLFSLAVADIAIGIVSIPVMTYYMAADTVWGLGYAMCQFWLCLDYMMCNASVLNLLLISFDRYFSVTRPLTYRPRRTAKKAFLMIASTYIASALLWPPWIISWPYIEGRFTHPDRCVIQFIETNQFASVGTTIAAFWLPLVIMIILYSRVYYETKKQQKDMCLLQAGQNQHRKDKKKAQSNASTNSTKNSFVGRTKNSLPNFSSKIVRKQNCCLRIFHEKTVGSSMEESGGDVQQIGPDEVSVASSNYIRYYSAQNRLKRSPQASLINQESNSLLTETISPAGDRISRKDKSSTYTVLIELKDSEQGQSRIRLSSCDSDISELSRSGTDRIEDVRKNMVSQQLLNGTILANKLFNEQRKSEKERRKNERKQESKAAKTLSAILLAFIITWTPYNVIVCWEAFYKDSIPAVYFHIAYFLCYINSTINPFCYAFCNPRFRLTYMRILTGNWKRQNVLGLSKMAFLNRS

In the case of `C[N+](C)(C)CC#CCN1CCCC1=O` [OXO, oxotremorine M], the “ring aversion assay, transgenic C. elegans expressing receptor in ASH neuron” value was “this receptor is activated by acetylcholine and oxotremorine M”.
